Laboratory results taken from PMC6302903, “Protein and Chemical Determinants of BL-1249 Action and Selectivity for K2P Channels” (ACS Chemical Neuroscience, 2018).

How the values were obtained:
TREK-1/AAK_T = TREK-1/AAK_T (Mus musculus, UniProt P97438); assay: TEVC of C-terminal tail swap chimera TREK-1/AAK_T; assay type: cell-based; settings: Xenopus oocytes
Description: (§1) Given the importance of the C-terminal tail for the BL-1249 response and the fact that the C-terminal tails of K2P2.1(TREK-1) and K2P4.1(TRAAK) vary substantially (17.6% sequence similarity, 13.5% identity), we wondered if these differences could contribute to the different potencies observed in K2P2.1(TREK-1) and K2P4.1(TRAAK) BL-1249 responses. To test this possibility, we made chimeras that swapped the C-terminal tail between K2P2.1(TREK-1) and K2P4.1(TRAAK), TREK-1/AAK_T and TRAAK/EK_T. […] Despite this modest change, it is clear that the C-terminal tail alone is not sufficient to endow the K2P4.1(TRAAK) core with a K2P2.1(TREK-1)-like BL-1249 response. […]
(§2) Xenopus laevis oocytes were harvested in accordance with UCSF IACUC protocol AN129690 and digested in calcium-free ND-96 (96 mM NaCl, 2 mM KCl, 3.8 mM MgCl2) immediately following harvest, as previously described.[6],[10] […] Defolliculated stage V–VI oocytes were injected with 0.2–6.0 ng of mRNA in 50 nL, and currents were recorded 24–48 h after injection. mRNA was synthesized from plasmid DNA using mMessage mMachine Kit (T7 promoter, Ambion, Life Technologies) and purified using RNEasy Kit (Qiagen). […] Once stabilized basal currents were recorded, compounds were perfused at various concentrations in standard ND96 and currents were allowed to increase to stabilization before recording final current. […]

K2P2.1(TREK-1)GGG = target: T1, K2P2.1(TREK-1)GGG (Mus musculus, UniProt P97438, D309G/I307G); assay: TEVC of triple-glycine mutant uncoupling the C-terminal tail; assay type: cell-based; settings: Xenopus oocytes
T1 construct: expressed in transfected cells; host or cells: Xenopus laevis oocytes, mRNA injected
Description: Gating stimuli detected by sensors in various parts of the channel converge on the K2P selectivity filter C-type gate.[6],[8],[10],[12],[35] Because the C-terminal tail is the sensor for K2P2.1(TREK-1) activation by both physiological[41]−[46] and chemical[45],[47] activators, we asked whether uncoupling the C-terminal tail from the channel using a triple-glycine mutant at the M4/C-terminal tail junction, K2P2.1(TREK-1)GGG,[41] impacted the BL-1249 response. […]
as §2, with “current. Fold activation upon compound application is expressed as I/I0 (0 mV), derived from the current at 0 mV in the presence of compound divided by the basal current at 0 mV in standard ND96 without compound.” for “current.”

TRAAK/EK-1_T = TRAAK/EK-1_T (Mus musculus, UniProt O88454); assay: TEVC of C-terminal tail swap chimera TRAAK/EK-1_T; assay type: cell-based; settings: Xenopus oocytes
Description: as §1, §2

K2P18.1(TRESK) = test system: K2P18.1(TRESK); design: method as in PMID 27641472; settings: cited from earlier work
K2P4.1(TRAAK) = target: T2, K2P4.1(TRAAK) (Mus musculus, UniProt O88454); assay: TEVC of K2P4.1(TRAAK) in Xenopus oocytes; assay type: cell-based
T2 construct: expressed in transfected cells; host or cells: Xenopus laevis oocytes injected with mRNA made from pGEMHE/pMO
T2 sequence (O88454 1-398): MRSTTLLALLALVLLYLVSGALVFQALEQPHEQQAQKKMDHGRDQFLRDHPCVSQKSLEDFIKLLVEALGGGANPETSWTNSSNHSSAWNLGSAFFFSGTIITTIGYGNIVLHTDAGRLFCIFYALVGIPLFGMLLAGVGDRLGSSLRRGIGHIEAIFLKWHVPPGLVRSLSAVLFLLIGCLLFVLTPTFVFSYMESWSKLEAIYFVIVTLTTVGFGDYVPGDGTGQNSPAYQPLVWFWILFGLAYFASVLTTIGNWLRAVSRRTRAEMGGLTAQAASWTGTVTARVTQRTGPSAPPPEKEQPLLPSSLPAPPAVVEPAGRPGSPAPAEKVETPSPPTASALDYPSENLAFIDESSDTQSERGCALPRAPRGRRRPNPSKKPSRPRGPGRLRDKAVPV
Description: Constructs for murine K2P channels, including K2P2.1(TREK-1) (Gene ID 16526), K2P10.1(TREK-2) (Gene ID 72258), K2P4.1(TRAAK) (Gene ID 16528), K2P5.1(TASK-2) (Gene ID 16529), K2P3.1(TASK-1) (Gene ID 16527), K2P9.1(TASK-3) (Gene ID 223604), and K2P18.1(TRESK) (Gene ID 332396) in pGEMHE/pMO, were used for Xenopus oocyte experiments as previously described.[10],[26] Murine K2P2.1(TREK-1) (Gene ID 16526) was expressed in HEK-293 cells using a pIRES-EGFP construct as previously described.[26] Murine K2P13.1(THIK-1) (Gene ID 217826) and K2P1.1(TWIK-1) (Gene ID 16525) were cloned into pGEMHE/pMO for use in Xenopus oocytes. Chimeras were designed using EMBOSS Needle pairwise sequence alignment tool[58] to match homologous helices in K2P2.1(TREK-1) and K2P4.1(TRAAK) and were assembled using the Gibson assembly method.[59] Chimera boundaries are Thr152 (TREK-1/AAK M2-C), Trp199 (TREK-1/AAK M3-C), Y272 (TREK-1/AAK M4-C), Thr114 (TRAAK/EK-1 M2-C), Trp161 (TRAAK/EK-1 M3-C), and Tyr234 K2P4.1(TRAAK). All sequences were verified using DNA sequencing.
Xenopus laevis oocytes were harvested in accordance with UCSF IACUC protocol AN129690 and digested in calcium-free ND-96 (96 mM NaCl, 2 mM KCl, 3.8 mM MgCl2) immediately following harvest, as previously described.[6],[10] Digested oocytes were maintained in standard ND96 (96 mM NaCl, 2 mM KCl, 1.8 mM CaCl2, 2 mM MgCl2) with antibiotics (100 units mL^–1 penicillin, 100 μg mL^–1 streptomycin, 50 μg mL^–1 gentimycin). Defolliculated stage V–VI oocytes were injected with 0.2–6.0 ng of mRNA in 50 nL, and currents were recorded 24–48 h after injection. mRNA was synthesized from plasmid DNA using mMessage mMachine Kit (T7 promoter, Ambion, Life Technologies) and purified using RNEasy Kit (Qiagen). Injected oocytes were impaled with two standard microelectrodes (0.2–1.0 MΩ) filled with 3 M KCl and subjected to constant perfusion of standard ND96 during recording. Currents were amplified using the GeneClamp 500B (MDS Analytical Technologies) amplifier controlled by the pClamp software (Molecular Devices). Data were digitized at 1 kHz using Digidata 1332A (MDS Analytical Technologies). For all experiments with small molecules, basal currents were evoked using 1 s long ramps from −150 to +50 mV under constant perfusion of ND96. Once stabilized basal currents were recorded, compounds were perfused at various concentrations in standard ND96 and currents were allowed to increase to stabilization before recording final current. Fold activation upon compound application is expressed as I/I0 (0 mV), derived from the current at 0 mV in the presence of compound divided by the basal current at 0 mV in standard ND96 without compound. Data were analyzed and plotted using Graphpad Prism Version 5 (GraphPad Software, San Diego California USA, www.graphpad.com). […] In the case of BL-1249-acid EC50 estimation, upper bound of I/I0 was set to 20 to account for the strong stimulation of BL-1249-acid.

Sequence of TREK-1/AAK_T (P97438 1-292 isoform P97438-2 limits assumed): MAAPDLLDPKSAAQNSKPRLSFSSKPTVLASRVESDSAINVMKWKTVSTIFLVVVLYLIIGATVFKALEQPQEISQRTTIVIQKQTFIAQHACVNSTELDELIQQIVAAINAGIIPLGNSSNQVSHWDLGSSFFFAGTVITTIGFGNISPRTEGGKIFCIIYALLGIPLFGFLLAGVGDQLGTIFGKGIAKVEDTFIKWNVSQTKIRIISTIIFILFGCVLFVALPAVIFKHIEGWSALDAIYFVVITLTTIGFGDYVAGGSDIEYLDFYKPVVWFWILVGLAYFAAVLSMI
T1 sequence (P97438 1-411 isoform P97438-2 I292G/D294G): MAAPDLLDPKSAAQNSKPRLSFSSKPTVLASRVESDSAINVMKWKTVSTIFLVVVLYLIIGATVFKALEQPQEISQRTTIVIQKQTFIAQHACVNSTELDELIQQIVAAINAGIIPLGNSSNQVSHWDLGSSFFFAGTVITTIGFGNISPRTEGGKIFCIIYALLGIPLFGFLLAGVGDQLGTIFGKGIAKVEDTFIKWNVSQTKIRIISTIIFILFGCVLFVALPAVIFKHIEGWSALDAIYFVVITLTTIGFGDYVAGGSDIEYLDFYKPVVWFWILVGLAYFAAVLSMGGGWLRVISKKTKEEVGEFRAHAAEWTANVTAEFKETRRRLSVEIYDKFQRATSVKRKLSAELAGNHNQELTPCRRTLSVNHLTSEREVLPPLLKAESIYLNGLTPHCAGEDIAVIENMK

- EC50 (TREK-1/AAK_T): 7.7 ± 0.6 µM
- EC50 (K2P2.1(TREK-1)GGG): 19 ± 1 µM
- EC50 (TRAAK/EK-1_T): 23 ± 4 µM
- increase in sensitivity of TRAAK/EK-1_T relative to K2P4.1(TRAAK) (TRAAK/EK-1_T): ~2 fold
- selectivity for K2P2.1(TREK-1) and K2P10.1(TREK-2) over K2P4.1(TRAAK) (EC50) (K2P4.1(TRAAK)): ~10 fold
- K2P4.1(TRAAK) current response (K2P4.1(TRAAK); 10 μM): weakly stimulated
- EC50 (K2P4.1(TRAAK); saturation not reached (solubility limit), fit with upper boundary of 15 (I/I0)): 48 ± 10 µM
SMILES: c1ccc(-c2nnn[nH]2)c(Nc2cccc3c2CCCC3)c1 [BL-1249, (5,6,7,8-tetrahydro-naphthalen-1-yl)-[2-(1H-tetrazol-5-yl)-phenyl]-amine]
- functional effect on K2P18.1(TRESK) (K2P18.1(TRESK)): activator
